The test system of data set [1] is WPMY-1 cells. Put plainly: Viability / metabolic activity assay on WPMY-1 cells. As to the method: Metabolically viable cells (indicated by bar; left y-axis) are indicated by fluorescent intensity (560/590 nm).
Cardiac glycosides have been shown previously to inhibit cell growth in a variety of cell types, in order to determine whether cardiac glycosides inhibited TGE-β-induced fibronectin expression by affecting metabolic activity, viability assays were performed on WPMY-1 cells over 48 hours in 1% FBS DMEM.

The subject of data set [2] is TGF-β-induced CAF differentiation markers. Description: Real-Time PCR of CAF markers in WPMY-1 fibroblasts. It counts as cell-based, human. To be noted: WPMY-1, 120 nM digoxin, 24 h. As to the method:
In order to determine if digoxin prevents CAF differentiation or simply TGF-β-induced fibronectin expression, the inventors performed quantitative reverse transcriptase-PCR (qPCR) to analyze other CAF markers, including α-SMA, collagen 1a1 (COL1A1), fibroblast activation protein (FAP), and tenascin C (TNC). RNA was extracted from cells treated with 120 nM digoxin±TGF-β for 24 hours. […] Additionally, the inventors observed that α-SMA mRNA expression was already high in WPMY-1 cells and not increased by addition of TGF-β, but was reduced in response to digoxin treatment.
In general terms: Real-time PCR tracks product formation cycle by cycle.

Data set [3] deals with EGR1 luciferase reporter. Put plainly: EGR1 luciferase reporter in WPMY-1 cells. In kind it is cell-based, human. The following applies: WPMY-1, digoxin 60 or 120 nM, 5 ng/ml TGF-β, 24 hours. As for the experimental part:
A) WPMY-1 human fibroblast cells transfected with SMAD (left) or EGR1 (right) luciferase reporter were treated with or without 5 ng/ml TGF-β in the presence or absence of Digoxin (60 or 120 nM) for 24 hours. Relative luciferase activity is shown. *P<0.05, **P<0.01, ***P<0.001 are significant differences compared to values set to 1 (n=3, Values are ±SEM). B) J2 mouse fibroblast cells were treated with or without 5 ng/ml TGF-β in the presence or absence of increasing concentrations (30, 60, 120, or 240 nM) of digoxin for 24 hours. Representative blot is shown with two exposures of fibronectin to account for strong signal intensity (n=3).
Finally, J2 mouse fibroblast cells were treated with or without 5 ng/ml TGF-β in the presence or absence of increasing concentrations (30, 60, 120, or 240 nM) of digoxin for 24 hours.

Data set [4] has as its system activated fibroblast phenotype (fibronectin, YAP, TAZ, smooth muscle actin). Description: Western blot of activated fibroblast markers (FN, YAP, TAZ, SMA) in MRC-5 lung fibroblasts induced by growth factors. In kind it is cell-based, human. As for the experimental part:
FIG. 10C: MRC-5 lung fibroblast cells were serum-starved 24 hours then treated with 10 ng/mL TGF-β in serum-free media for 24 hours with or without verteporfin at the indicated concentration. FN: fibronectin, YAP: yes-activated protein, TAZ: transcriptional coactivator with PDZ-binding motif, and SMA(ACTA2): smooth muscle actin. Representative western blot is shown (n=3).
FIG. […] T.F.8: combination TGF, FGF, IL8. […] FN: fibronectin, YAP: yes-activated protein, TAZ: transcriptional coactivator with PDZ-binding motif, and SMA(ACTA2): smooth muscle actin. Representative western blot is shown (n=2).

In data set [5] the test system is TGF-β-induced fibronectin. To be noted: MRC-5, 10 ng/mL TGF-β, 24 hours, low concentrations alone or in combination. As to the method: (§1) FIGS. 13A-13C: MRC-5 lung fibroblast cells were serum-starved 24 hours then treated with or without 10 ng/mL TGF-β for 24 hours (T-24 hr). […] FN: fibronectin, YAP: yes-activated protein, TAZ: transcriptional coactivator with PDZ-binding motif, and SMA(ACTA2): smooth muscle actin. Representative western blot is shown (n=2). […] Cells were fixed in −20C methanol for 15 minutes and immunolabeled for fibronectin. Cellomics arrayscan imaging was performed and staining intensity was quantified and analyzed for fibronectin expression on a per cell basis.
(§2) Turning now to FIGS. 13A-13E, in a clinical setting, it would be advantageous for the efficacy of the therapeutics that the activated fibroblasts be reversed to a quiescent state upon treatment. […] To test the combinations, the inventors obtained quantitative analysis of fibronectin staining in fibroblasts upon treatment with TGF-β in the presence or absence of drug combinations.

Data set [6] relates to activated fibroblast phenotype. To be noted: MRC-5 pre-activated with 10 ng/mL TGF-β 24 hours, then 24 hours treatment. As for the experimental part:
as §1, §2

Data set [7] relates to MRC-5 fibroblasts. Description: Collagen/Matrigel contraction of MRC-5 fibroblasts. To be noted: MRC-5 in collagen/Matrigel, 120 nM digoxin, 5 ng/ml TGF-β, 4 days.
Description: (§3) WPMY-1 (A) and MRC-5 (B) fibroblasts were treated with or without 120 nM digoxin±5 ng/ml TGF-β. […] WPMY-1 (C) and MRC-5 (D) fibroblasts embedded in collagen/Matrigel were treated with or without 120 nM digoxin±5 ng/ml TGF-β for 4 days post seeding. Data are shown as percent contracted area from initial 100% well confluence. *P<0.05 and **P<0.01 indicate significant differences (n=3, Values are ±SEM).
Data set [8] deals with WPMY-1 fibroblasts. Put plainly: Collagen/Matrigel contraction of WPMY-1 fibroblasts. To be noted: WPMY-1 in collagen/Matrigel, 120 nM digoxin, 5 ng/ml TGF-β, 4 days.
Description: as §3

On to `C[C@H]1O[C@@H](O[C@H]2[C@@H](O)C[C@H](O[C@H]3[C@@H](O)C[C@H](O[C@H]4CC[C@@]5(C)[C@H](CC[C@@H]6[C@@H]5C[C@@H](O)[C@]5(C)[C@@H](C7=CC(=O)OC7)CC[C@]65O)C4)O[C@@H]3C)O[C@@H]2C)C[C@H](O)[C@@H]1O` [digoxin], for which the “cell viability / metabolic activity” value in data set [1] is “no effect on cell viability”. For the same compound, the “TGF-β-induced expression of FN1, COL1A1, FAP, TNC mRNA” value in data set [2] (5 ng/ml TGF-β) is “prevented TGF-β-induced expression of FN1, COL1A1, FAP, and TNC mRNA”. Besides, in data set [2], the “α-SMA mRNA expression” value is “reduced”. Further, in data set [3], the “EGR-1 dependent promoter (luciferase) activity” value is given as “lowers the activation of promoter dependent on EGR-1”. In data set [4] (MRC-5, 10 ng/mL TGF-β and 20 ng/ml FGF, 24 hours), the “activated fibroblast phenotype induced by TGF-β and FGF (fibronectin, YAP, TAZ, smooth muscle actin)” value is “able to prevent the activated fibroblast phenotype”. Further, the “activated fibroblast phenotype upon TGF-β and FGF, compared with nintedanib” value in data set [4] (MRC-5, 10 ng/mL TGF-β and 20 ng/ml FGF, 24 hours, nintedanib 200 nM) is “able to block the activated fibroblast phenotype better than nintedanib”. The “fibroblast activation from a combination of growth factors (TGF, FGF, IL8)” value in data set [4] (MRC-5, 10 ng/mL TGF-β, 20 ng/mL FGF, 20 ng/mL IL-8, digoxin 250 nM, pyrvinium 500 nM vs pirfenidone 500 μm, nintedanib 250 nM) is on record as “able to block fibroblast activation from a combination of growth factors better than pirfenidone or nintedanib”. Moreover, in data set [4] (MRC-5, 10 ng/mL TGF-β, serum-free, 24 hours, dose escalation), the “induction of fibronectin, YAP, TAZ, smooth muscle actin by TGF-β” value was “block the induction of activated fibroblasts”. Further, the “fibronectin staining intensity per cell (Cellomics arrayscan)” value in data set [5] is “the levels of fibronectin are reduced”. For the same compound, the “reversal of activated fibroblast phenotype (fibronectin, TAZ, smooth muscle actin)” value in data set [6] was “revert fibroblasts to the quiescent state”. For the same compound, the “TGF-β induced contraction of fibroblasts” value in data set [7] and in data set [8] was “inhibits TGF-β induced contraction of fibroblasts” in each case.

For the origin of these results see patent publication US11096952B2, “Chemicals and methods to prevent and treat TGF-beta mediated activation of fibroblasts to reduce and treat cancer and fibrosis” (Board of Supervisors of Louisiana State University and …, priority 2016, dated 2021).
